In publication PMC2896556 (Biochemistry, 2010):
Where two headings read alike, the source gives them in different places.

Experiments:
RT subunit interactions = conditions: cited from earlier work
p66 = p66 (Human immunodeficiency virus type 1 group M subtype B, UniProt P04585); parameters: species or system HIV-1; conditions: 3 μM p66, 25 μM NNRTI, 1 wk
RT dimerization [1] = conditions: yeast-two hybrid; cited from earlier work
RT dimerization [2] = conditions: urea denaturation; cited from earlier work
p66/p66 = conditions: cited from earlier work
p51/p51 = conditions: cited from earlier work

Structure (SMILES)	effect on RT subunit interactions (RT subunit interactions)	also measured
CC(C)Nc1cccnc1N1CCN(C(=O)c2cc3cc(NS(C)(=O)=O)ccc3[nH]2)CC1 [delavirdine]	little or no effect	
CC(C)(C)c1ccc(C(=O)NN=Cc2c(O)ccc3ccccc23)cc1 [BBNH, N-(4-tert-butylbenzoyl)-2-hydroxy-1-naphthaldehyde hydrazone]	weaken subunit interactions	
Cc1ccnc2c1NC(=O)c1cccnc1N2C1CC1 [nevirapine]	enhance subunit interactions	effect on p66 dimerization (p66): enhance dimerization; effect on RT dimerization (RT dimerization [1]): small enhancement of dimerization; effect on RT dimerization (RT dimerization [2]): no effect
CCn1c(=O)c(C)cn([C@@H]2O[C@H](CO[Si](C)(C)C(C)(C)C)C3(OS(=O)(=O)C=C3N)[C@H]2O[Si](C)(C)C(C)(C)C)c1=O (stereo partly drawn) [TSAOe^3T, 1-(spiro{4”-amino-2”,2”-dioxo-1”,2”-oxathiole-5”,3′-[2′,5′-bis-O-(tert-butyldimethylsilyl)-β-D-ribofuranosyl]})-3-ethylthymine]	weaken subunit interactions	
O=C1Nc2ccc(Cl)cc2[C@@](C#CC2CC2)(C(F)(F)F)O1 [efavirenz]	enhance subunit interactions	enhancement of dimer formation (p66/p66): 50 fold; enhancement of dimer formation (p51/p51): 600 fold
CC(C)(C)c1ccc(C(=O)NN=Cc2ccccc2O)cc1 [BBSH, (4-tert-butylbenzoyl)-2-hydroxy-1-salicylyl hydrazone]	weaken subunit interactions	
